US9394311B2, “Triazolo compounds as PDE10 inhibitors” (Hoffmann-La Roche Inc., priority 2012, dated 2016)

What follows are molecules tested against human PDE10A (Homo sapiens (Human), UniProt Q9Y233) (assay: human PDE10A full length Scintillation Proximity Assay (SPA)). Conditions: PDE10A full length enzyme, 50 nM cGMP / [3H]-cGMP substrate, 20 minutes at room temperature.
Type: biochemical
Protocol: The following test was carried out in order to determine the activity of the compounds of the present invention. PDE10 activity of the compounds of the present invention was determined using a Scintillation Proximity Assay (SPA)-based method similar to the one previously described (Fawcett, L. et al., Proc Natl Acad Sci USA (2000) 97(7):3702-3707).
The human PDE10A full length assay was performed in 96-well micro titer plates. The reaction mixture of 50 μl contained 20 mM HEPES pH=7.5/10 mM MgCl2/0.05 mg/ml BSA (Sigma cat. # A-7906), 50 nM cGMP (Sigma, cat. # G6129) and 50 nM [3H]-cGMP (GE Healthcare, cat. # TRK392 S.A. 13.2 Ci/mmol), 3.75 ng/well PDE10A enzyme (Enzo Life Science, Lausen, Switzerland cat # SE-534) with or without a specific test compound. A range of concentrations of the potential inhibitor was used to generate data for calculating the concentration of inhibitor resulting in 50% of the effect (e.g. IC50, the concentration of the competitor inhibiting PDE10A activity by 50%). Non-specific activity was tested without the enzyme. The reaction was initiated by the addition of the substrate solution (cGMP and [3H]-cGMP) and allowed to progress for 20 minutes at room temperature. The reaction was terminated by adding 25 μl of YSi-SPA scintillation beads (GE Healthcare, cat. # RPNQ0150) in 18 mM zinc sulphate solution (stop reagent). After 1 h under shaking, the plate was centrifuged one minute at 170 g to allow beads to settle. Afterwards, radioactive counts were measured on a Perkin Elmer Top-Count Scintillation plate reader.

Chain of human PDE10A (Q9Y233 other isoform, or with tags, fused parts or gaps): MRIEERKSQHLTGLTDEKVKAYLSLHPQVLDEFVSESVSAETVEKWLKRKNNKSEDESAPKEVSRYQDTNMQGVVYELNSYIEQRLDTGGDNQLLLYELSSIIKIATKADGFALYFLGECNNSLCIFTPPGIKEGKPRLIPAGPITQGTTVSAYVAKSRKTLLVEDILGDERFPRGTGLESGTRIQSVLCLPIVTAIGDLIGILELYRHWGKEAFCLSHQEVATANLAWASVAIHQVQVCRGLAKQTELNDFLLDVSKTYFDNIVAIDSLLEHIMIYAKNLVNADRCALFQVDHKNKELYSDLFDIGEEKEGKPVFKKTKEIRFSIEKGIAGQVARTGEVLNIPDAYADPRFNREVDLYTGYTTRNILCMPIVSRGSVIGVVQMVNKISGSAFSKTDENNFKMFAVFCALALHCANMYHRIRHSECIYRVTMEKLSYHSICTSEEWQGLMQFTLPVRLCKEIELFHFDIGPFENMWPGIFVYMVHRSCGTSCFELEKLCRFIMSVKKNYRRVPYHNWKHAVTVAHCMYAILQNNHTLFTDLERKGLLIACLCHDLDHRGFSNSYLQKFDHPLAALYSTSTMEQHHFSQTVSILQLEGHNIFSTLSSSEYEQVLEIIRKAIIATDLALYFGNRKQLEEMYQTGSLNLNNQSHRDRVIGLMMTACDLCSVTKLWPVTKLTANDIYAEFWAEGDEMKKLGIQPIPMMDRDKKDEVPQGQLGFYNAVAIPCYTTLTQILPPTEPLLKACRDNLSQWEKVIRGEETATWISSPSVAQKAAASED

Row | Structure (SMILES) | IC50 [nM]
1 | Cc1c(Cl)cc(C#N)c2nc(CCc3nc(N4CCCC4)nn3C)nn12 [Example 79, 6-Chloro-5-methyl-2-[2-(2-methyl-5-pyrrolidin-1-yl-2H-[1,2,4]triazol-3-yl)-ethyl]-[1,2,4]triazolo[1,5-c]pyridine-8-carbonitrile] | 2.22
2 | Cc1nc(C)n2nc(CCc3nc(N4CCCC4)nn3C)nc2c1Cl [Example 44, 8-Chloro-5,7-dimethyl-2-(2-(1-methyl-3-(pyrrolidin-1-yl)-1H-1,2,4-triazol-5-yl)ethyl)-[1,2,4]triazolo[1,5-c]pyrimidine] | 9.41
3 | Cc1ncc(C)n2nc(/C=C/c3nc(N(C)C4CC4)nn3C)nc12 [Example 11, Cyclopropyl-{5-[2-(5,8-dimethyl-[1,2,4]triazolo[1,5-a]pyrazin-2-yl)-vinyl]-1-methyl-1H-[1,2,4]triazol-3-yl}-methyl-amine] | 42.3
4 | COc1ccc(Cn2nc(N3CCCC3)nc2CCc2nc3c(C)ncc(C)n3n2)cc1 [Example 20, 2-{2-[2-(4-Methoxy-benzyl)-5-pyrrolidin-1-yl-2H-[1,2,4]triazol-3-yl]-ethyl}-5,8-dimethyl-[1,2,4]triazolo[1,5-a]pyrazine] | 5
5 | Cc1c(Cl)ccc2nc(CCc3nc(N4CCCC4)nn3C)nn12 [Example 27, 6-Chloro-5-methyl-2-(2-(1-methyl-3-(pyrrolidin-1-yl)-1H-1,2,4-triazol-5-yl)ethyl)-[1,2,4]triazolo[1,5-a]pyridine] | 0.98
6 | Cn1nc(N2CCCC2)nc1CCc1nc2ccc3ccccc3n2n1 [Example 56, 2-(2-(1-Methyl-3-(pyrrolidin-1-yl)-1H-1,2,4-triazol-5-yl)ethyl)-[1,2,4]triazolo[1,5-a]quinoline] | 29.2
7 | Cc1c(Cl)cc(C(F)(F)F)c2nc(CCc3nc(N4CCCC4)n(C)n3)nn12 [Example 105, 6-Chloro-5-methyl-2-[2-(1-methyl-5-pyrrolidin-1-yl-1H-[1,2,4]triazol-3-yl)-ethyl]-8-trifluoromethyl-[1,2,4]triazolo[1,5-c]pyridine] | 0.44
8 | COc1cc(Cl)c(C)n2nc(CCc3nc(N4CCCC4)nn3C)nc12 [Example 76, 6-Chloro-8-methoxy-5-methyl-2-[2-(2-methyl-5-pyrrolidin-1-yl-2H-[1,2,4]triazol-3-yl)-ethyl]-[1,2,4]triazolo[1,5-a]pyridine] | 0.44
9 | Cc1c(Cl)cc(C(F)(F)F)c2nc(CCc3nc(N4CCCC4)nn3C3CC3)nn12 [Example 132, 6-Chloro-2-(2-(1-cyclopropyl-3-(pyrrolidin-1-yl)-1H-1,2,4-triazol-5-yl)ethyl)-5-methyl-8-(trifluoromethyl)-[1,2,4]triazolo[1,5-a]pyridine] | 0.72
10 | CCn1nc(CCc2nc3c(C)ncc(C)n3n2)nc1N1CCCC1 [Example 48, 2-(2-(1-Ethyl-5-(pyrrolidin-1-yl)-1H-1,2,4-triazol-3-yl)ethyl)-5,8-dimethyl-[1,2,4]triazolo[1,5-a]pyrazine] | 28.5
11 | Cc1ncc(C)n2nc(/C=C/c3nc(N4CCCC4)n(C)n3)nc12 [Example 17, 5,8-Dimethyl-2-[2-(1-methyl-5-pyrrolidin-1-yl-1H-[1,2,4]triazol-3-yl)-vinyl]-[1,2,4]triazolo[1,5-a]pyrazine] | 6.72
12 | Cn1nc(N2CCCC2)nc1CCc1nc2cc(C(F)(F)F)c(F)c(N)n2n1 [Example 63, 6-Fluoro-2-(2-(1-methyl-3-(pyrrolidin-1-yl)-1H-1,2,4-triazol-5-yl)ethyl)-7-(trifluoromethyl)-[1,2,4]triazolo[1,5-a]pyridin-5-amine] | 32.4
13 | Cc1nc(C)n2nc(CCc3nc(N4CCCC4)nn3C)nc2c1C [Example 42, 5,7,8-Trimethyl-2-(2-(1-methyl-3-(pyrrolidin-1-yl)-1H-1,2,4-triazol-5-yl)ethyl)-[1,2,4]triazolo[1,5-c]pyrimidine] | 13.6
14 | Cc1ncc(C)n2nc(CCc3nc(N4CCC5(CC5)C4)nn3C)nc12 [Example 92, 2-{2-[5-(5-Aza-spiro[2.4]hept-5-yl)-2-methyl-2H-[1,2,4]triazol-3-yl]-ethyl}-5,8-dimethyl-[1,2,4]triazolo[1,5-a]pyrazine] | 13.9
15 | Cc1c(C#N)cc(Cl)c2nc(CCc3nc(N4CCCC4)nn3C)nn12 [Example 74, 8-Chloro-5-methyl-2-[2-(2-methyl-5-pyrrolidin-1-yl-2H-[1,2,4]triazol-3-yl)-ethyl]-[1,2,4]triazolo[1,5-c]pyridine-6-carbonitrile] | 2.16
16 | Cc1ncc(C)n2nc(CCc3nc(N4CCC[C@H]4C)nn3C)nc12 [Example 101, 5,8-Dimethyl-2-{2-[2-methyl-5-((R)-2-methyl-pyrrolidin-1-yl)-2H-[1,2,4]triazol-3-yl]-ethyl}-[1,2,4]triazolo[1,5-a]pyrazine] | 57.6
17 | COc1ccc(Cn2nc(CCc3nc4c(Cl)cc(Cl)c(C)n4n3)nc2N2CCCC2)cc1 [Example 62, 6,8-Dichloro-2-(2-(1-(4-methoxybenzyl)-5-(pyrrolidin-1-yl)-1H-1,2,4-triazol-3-yl)ethyl)-5-methyl-[1,2,4]triazolo[1,5-a]pyridine] | 3.23
18 | Cc1c(Cl)cc(OC(F)F)c2nc(CCc3nc(N4CCCC4)n(C)n3)nn12 [Example 106, 6-Chloro-8-difluoromethoxy-5-methyl-2-[2-(1-methyl-5-pyrrolidin-1-yl-1H-[1,2,4]triazol-3-yl)-ethyl]-[1,2,4]triazolo[1,5-c]pyridine] | 0.55
19 | COC[C@H]1CCCN1c1nc(CCc2nc3c(C)ncc(C)n3n2)n(C)n1 [Example 124, 2-{2-[5-((R)-2-Methoxymethyl-pyrrolidin-1-yl)-2-methyl-2H-[1,2,4]triazol-3-yl]-ethyl}-5,8-dimethyl-[1,2,4]triazolo[1,5-a]pyrazine] | 14.1
20 | Cc1ccn2nc(CCc3nc(N4CCCC4)n(C)n3)nc2c1C [Example 32, 7,8-Dimethyl-2-(2-(1-methyl-5-(pyrrolidin-1-yl)-1H-1,2,4-triazol-3-yl)ethyl)-[1,2,4]triazolo[1,5-a]pyridine] | 7.23
21 | Cc1cc(Cl)c(C)n2nc(CCc3nc(N4CCCC4)n(C)n3)nc12 [Example 36, 6-Chloro-5,8-dimethyl-2-(2-(1-methyl-5-(pyrrolidin-1-yl)-1H-1,2,4-triazol-3-yl)ethyl)-[1,2,4]triazolo[1,5-a]pyridine] | 0.58
22 | Cc1c(Cl)cc(O)c2nc(CCc3nc(N4CCCC4)nn3C)nn12 [Example 85, 6-Chloro-5-methyl-2-(2-(1-methyl-3-(pyrrolidin-1-yl)-1H-1,2,4-triazol-5-yl)ethyl)-[1,2,4]triazolo[1,5-a]pyridin-8-ol] | 4.22
23 | Cc1ncc(C)n2nc(CCc3nc(N4CCCC4=O)nn3C)nc12 [Example 87, 1-{5-[2-(5,8-Dimethyl-[1,2,4]triazolo[1,5-a]pyrazin-2-yl)-ethyl]-1-methyl-1H-[1,2,4]triazol-3-yl}-pyrrolidin-2-one] | 288
24 | COc1ccc(Cn2nc(C#Cc3cnc4ccc(Cl)cc4n3)nc2N2CCCC2)cc1 [Example 133, 7-chloro-2-((1-(4-methoxybenzyl)-5-(pyrrolidin-1-yl)-1H-1,2,4-triazol-3-yl)ethynyl)quinoxaline] | 17.8
25 | Cc1c(Cl)cc(OCC(F)(F)F)c2nc(CCc3nc(N4CCCC4)nn3C)nn12 [Example 98, 6-Chloro-5-methyl-2-[2-(2-methyl-5-pyrrolidin-1-yl-2H-[1,2,4]triazol-3-yl)-ethyl]-8-(2,2,2-trifluoro-ethoxy)-[1,2,4]triazolo[1,5-c]pyridine] | 0.51
26 | Cc1c(Cl)cc(OC(F)F)c2nc(CCc3nc(N4CCCC4)nn3C)nn12 [Example 95, 6-Chloro-8-difluoromethoxy-5-methyl-2-[2-(2-methyl-5-pyrrolidin-1-yl-2H-[1,2,4]triazol-3-yl)-ethyl]-[1,2,4]triazolo[1,5-c]pyridine] | 0.23
27 | Cc1cnc(C)n2nc(CCc3nc(N4CCCC4C)nn3C)nc12 (stereo not drawn) [Example 111, 5,8-Dimethyl-2-{2-[2-methyl-5-(2-methyl-pyrrolidin-1-yl)-2H-[1,2,4]triazol-3-yl]-ethyl}-[1,2,4]triazolo[1,5-c]pyrimidine] | 18.4
28 | Cc1ncc(C)n2nc(CCc3nc(N4CCCC4)n(CC4CC4)n3)nc12 [Example 117b, 2-[2-(1-Cyclopropylmethyl-5-pyrrolidin-1-yl-1H-[1,2,4]triazol-3-yl)-ethyl]-5,8-dimethyl-[1,2,4]triazolo[1,5-a]pyrazine] | 6.69
29 | Cc1cc(C(F)(F)F)c2nc(CCc3nc(N4CCCC4)nn3C)nn2c1C [Example 84, 5,6-Dimethyl-2-(2-(1-methyl-3-(pyrrolidin-1-yl)-1H-1,2,4-triazol-5-yl)ethyl)-8-(trifluoromethyl)-[1,2,4]triazolo[1,5-a]pyridine] | 1.45
30 | Cc1ncc(C)n2nc(CCc3nc(N4CCC(F)(F)C4)nn3C)nc12 [Example 93, 2-{2-[5-(3,3-Difluoro-pyrrolidin-1-yl)-2-methyl-2H-[1,2,4]triazol-3-yl]-ethyl}-5,8-dimethyl-[1,2,4]triazolo[1,5-a]pyrazine] | 166
